Reference: PubChem BioAssay AID624344 (Sanford-Burnham Center for Chemical Genomics, 2012)
The source made the active and inactive calls. No rule for the calls is given here.

Key:
[1] = inhibitors of PAF-induced NFkB signaling in CF airway cells, dose response, cell-based, uHTS hits, panel, cytotoxicity readout (AID 624344); settings: CF bronchial epithelial cells, PAF-induced NFkB reporter inhibition; with PAF, mean of runs
Cytotoxicity = assay: as above; settings: CF bronchial epithelial cells, mean of runs

Question: For `CCN1CCN(Cc2ccc(NC(=O)c3ccc(C)c(NC(=O)c4cc(-c5ccc(Br)cc5)n[nH]4)c3)cc2C(F)(F)F)CC1`, which IC50 [1] is on record?
Answer: 2.77 µM

Question: And the IC50 (Cytotoxicity)?
Answer: 42.5 µM

Question: Which results are given for `Cc1ccc2occ(/C=N/NC(=O)c3ccccc3Br)c(=O)c2c1`?
Answer: IC50 [1]: 4.98 µM; IC50 (Cytotoxicity): 40.4 µM

Question: Which results are given for `Nc1ncnc(N2CCc3ccccc32)c1[N+](=O)[O-]`?
Answer: IC50 [1]: 0.651 µM; IC50 (Cytotoxicity): 29.7 µM

Question: For `Cc1ccc(NC(=O)c2cc(C(=O)c3cc(Cl)ccc3O)cn(-c3ccc(C)cc3)c2=O)cc1`, which IC50 [1] is on record?
Answer: 9.4 µM

Question: What about the IC50 (Cytotoxicity) of the same compound?
Answer: 53 µM (inactive)

Question: With `O=C(O)/C=C/c1ccc2c(-c3ccccc3)onc2c1` as the compound, how does the IC50 [1] read?
Answer: 1.81 µM

Question: What about the IC50 (Cytotoxicity) of the same compound?
Answer: 4.73 µM

Question: What does the source list for `O=C(NNc1ccccc1Br)C(O)(c1cccc(C(F)(F)F)c1)c1cccc(C(F)(F)F)c1`?
Answer: IC50 [1]: 5.72 µM; IC50 (Cytotoxicity): 7.73 µM

Question: Which IC50 [1] does the source give for `COc1ccc(-c2cc(=O)oc3cc(OC(=O)C4CCCCC4)c(Cl)cc23)cc1` here?
Answer: 0.302 µM

Question: And the IC50 (Cytotoxicity)?
Answer: 61.6 µM (inactive)

Question: For `COc1ccc2[nH]c3c(c2c1)CC(C)NC3=O` (centres undefined), which IC50 [1] is on record?
Answer: 1.3 µM

Question: What about the IC50 (Cytotoxicity) of the same compound?
Answer: 55.3 µM (inactive)

Question: Which results are given for `O=Nc1c(O)n(Cc2c(Cl)cccc2Cl)c2ccccc12`?
Answer: IC50 [1]: 5.45 µM; IC50 (Cytotoxicity): 49.2 µM

Question: What does the source list for `COc1ccc(Nc2nccc(-c3cccc(N)c3)n2)cc1`?
Answer: IC50 [1]: 4.14 µM; IC50 (Cytotoxicity): 42.6 µM

Question: Which results are given for `CC(C)C[C@H]1CNC(=S)N1C[C@H]1CCCN1C[C@H](Cc1ccc(O)cc1)N1C[C@H](Cc2ccc(O)cc2)N(CC2CCCCC2)C1=S`?
Answer: IC50 [1]: inactive; IC50 (Cytotoxicity): 51.2 µM (inactive)

Question: Which results are given for `CC[C@@H](C(=O)[C@@H](C)[C@@H](O)[C@H](C)[C@@H]1O[C@@H]([C@@H](CC)C(=O)O)CC[C@@H]1C)[C@H]1O[C@]2(C=C[C@@H](O)[C@]3(CC[C@@](C)([C@H]4CC[C@](O)(CC)[C@H](C)O4)O3)O2)[C@H](C)C[C@@H]1C`?
Answer: IC50 [1]: 0.399 µM; IC50 (Cytotoxicity): 2.36 µM

Question: With `C=C1C(=O)OC2CC3(C)OC3CCC(C)=CC(OC(C)=O)C12` (centres undefined) as the compound, how does the IC50 [1] read?
Answer: 2.27 µM

Question: What about the IC50 (Cytotoxicity) of the same compound?
Answer: 2.35 µM

Question: Which results are given for `Cn1nnnc1Sc1ncnc2scc(-c3ccc[nH]3)c12`?
Answer: IC50 [1]: 14.7 µM; IC50 (Cytotoxicity): 6.95 µM

Question: For `Cc1ccc(C(=O)c2cncc(Br)c2)cc1`, which IC50 [1] is on record?
Answer: 13 µM

Question: And the IC50 (Cytotoxicity)?
Answer: > 79 µM (inactive)

Question: With `Cc1nc2sc(C(N)=O)c(N)c2c(C)c1CC(=O)c1ccccc1` as the compound, how does the IC50 [1] read?
Answer: 10.7 µM

Question: What about the IC50 (Cytotoxicity) of the same compound?
Answer: > 79 µM (inactive)

Question: Which IC50 [1] does the source give for `CCOC(=O)c1[nH]c2c(c1C)C(=O)CC(c1ccco1)C2` (centres undefined) here?
Answer: inactive

Question: What about the IC50 (Cytotoxicity) of the same compound?
Answer: > 79 µM (inactive)

Question: With `C=CC[C@]12CC=CC(=O)[C@@]1(O)O[C@H](c1ccc(OC)c(OC)c1)[C@H]2C` as the compound, how does the IC50 [1] read?
Answer: 4.61 µM

Question: And the IC50 (Cytotoxicity)?
Answer: 6.69 µM

Question: What does the source list for `COc1ccc(CN(CCC(c2ccc(F)cc2)C2CCOC(C)(C)C2)C(=O)c2ccco2)cc1` (centres undefined)?
Answer: IC50 [1]: 6.57 µM; IC50 (Cytotoxicity): 8.96 µM

Question: With `NC(=O)c1cc2ccc(O)cc2oc1=Nc1ccccc1` as the compound, how does the IC50 [1] read?
Answer: 1.41 µM

Question: And the IC50 (Cytotoxicity)?
Answer: 44.8 µM

Question: With `COc1ccc(-c2csc3ncnc(NCCO)c23)cc1` as the compound, how does the IC50 [1] read?
Answer: 1.85 µM

Question: And the IC50 (Cytotoxicity)?
Answer: 54 µM (inactive)

Question: For `CC[C@H](CO)Nc1nc(Nc2cccc(Cl)c2)c2ncn(C(C)C)c2n1`, which IC50 [1] is on record?
Answer: 3.53 µM

Question: What about the IC50 (Cytotoxicity) of the same compound?
Answer: 8.91 µM

Question: For `Clc1cccc(Nc2ncnc3ccc(Br)cc23)c1`, which IC50 [1] is on record?
Answer: 3.53 µM

Question: And the IC50 (Cytotoxicity)?
Answer: 15.1 µM

Question: For `Clc1cncc(Cl)c1N/N=C/c1ccncc1`, which IC50 [1] is on record?
Answer: 1.67 µM

Question: What about the IC50 (Cytotoxicity) of the same compound?
Answer: 12.5 µM

Question: Which IC50 [1] does the source give for `CC(C)(C)OC(=O)NCCCCCNC(=O)c1nc[nH]c1C(=O)NCC(=O)OCc1ccccc1` here?
Answer: 3.56 µM

Question: And the IC50 (Cytotoxicity)?
Answer: 9.6 µM

Question: For `O=c1cc(-c2ccccc2Cl)oc2cc(O)cc(O)c12`, which IC50 [1] is on record?
Answer: 5.33 µM

Question: And the IC50 (Cytotoxicity)?
Answer: 55.8 µM (inactive)

Question: Which IC50 [1] does the source give for `COc1ccc(-c2cnc(N)nc2-c2ccc(OC)cc2O)cc1` here?
Answer: 4.66 µM

Question: And the IC50 (Cytotoxicity)?
Answer: 36.5 µM

Question: Which results are given for `c1cnc2ccc(-n3ccnc3)cc2c1`?
Answer: IC50 [1]: 10.3 µM; IC50 (Cytotoxicity): 60 µM (inactive)

Question: With `Cc1c(Cl)cccc1NC(=O)CSc1nc2ncc(Cl)cc2[nH]1` as the compound, how does the IC50 [1] read?
Answer: 10.6 µM

Question: What about the IC50 (Cytotoxicity) of the same compound?
Answer: 15.5 µM

Question: Which IC50 [1] does the source give for `Cc1ccc(CSc2nccc(-c3c(C)nc4ccccn34)n2)cc1` here?
Answer: 3.18 µM

Question: What about the IC50 (Cytotoxicity) of the same compound?
Answer: 26.4 µM

Question: With `O=C1NC(=S)N/C1=C/c1cccnc1` as the compound, how does the IC50 [1] read?
Answer: 5.96 µM

Question: And the IC50 (Cytotoxicity)?
Answer: 41.8 µM

Question: Which IC50 [1] does the source give for `CS(=O)(=O)Nc1ccc(-c2cnc3cccnn23)cc1` here?
Answer: 2.5 µM

Question: What about the IC50 (Cytotoxicity) of the same compound?
Answer: > 79 µM (inactive)
